Measured values as given in patent US8192962B2, “Processes for detecting toxic substances” (Daikin Industries, Ltd., priority 2001, dated 2012).

Tested on: Transport facilitation protein genes
Experiment: DNA chip mRNA expression in yeast, transport facilitation protein genes (Table 5)
Assay type: cell-based, Saccharomyces cerevisiae S288C
In short: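 Chemical exposure: 2 h, log-phase S. cerevisiae S288C, YPD, 25° C., dose set to inhibit growth without death. Profiling: mRNA labeled by reverse transcription with Cy3- or Cy5-dUTP, hybridized to whole-genome array. Output: fluorescence ratio against untreated culture.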

## CCCCCCCCCCCCc1ccc(S(=O)(=O)[O-])cc1.[Na+] [(17), sodium dodecylbenzosulfonate]
Yeast gene YBL030C
  The level of expressed mRNA in the presence of chemical substance/The level of expressed mRNA in the absence of chemical substance: 1.0
Yeast gene YBL099W
  The level of expressed mRNA in the presence of chemical substance/The level of expressed mRNA in the absence of chemical substance: 0.7
Yeast gene YBR052C
  The level of expressed mRNA in the presence of chemical substance/The level of expressed mRNA in the absence of chemical substance: 1.8
Yeast gene YBR068C
  The level of expressed mRNA in the presence of chemical substance/The level of expressed mRNA in the absence of chemical substance: 1.1
Yeast gene YBR127C
  The level of expressed mRNA in the presence of chemical substance/The level of expressed mRNA in the absence of chemical substance: 0.8
Yeast gene YBR132C
  The level of expressed mRNA in the presence of chemical substance/The level of expressed mRNA in the absence of chemical substance: 1.1
Yeast gene YBR207W
  The level of expressed mRNA in the presence of chemical substance/The level of expressed mRNA in the absence of chemical substance: 1.2
Yeast gene YBR293W
  The level of expressed mRNA in the presence of chemical substance/The level of expressed mRNA in the absence of chemical substance: 1.0
Yeast gene YBR294W
  The level of expressed mRNA in the presence of chemical substance/The level of expressed mRNA in the absence of chemical substance: 1.0
Yeast gene YBR295W
  The level of expressed mRNA in the presence of chemical substance/The level of expressed mRNA in the absence of chemical substance: 1.3
Yeast gene YBR298C
  The level of expressed mRNA in the presence of chemical substance/The level of expressed mRNA in the absence of chemical substance: 0.9
Yeast gene YCL025C
  The level of expressed mRNA in the presence of chemical substance/The level of expressed mRNA in the absence of chemical substance: 0.6
Yeast gene YCL038C
  The level of expressed mRNA in the presence of chemical substance/The level of expressed mRNA in the absence of chemical substance: 1.4
Yeast gene YCR024C-A
  The level of expressed mRNA in the presence of chemical substance/The level of expressed mRNA in the absence of chemical substance: 0.9
Yeast gene YCR037C
  The level of expressed mRNA in the presence of chemical substance/The level of expressed mRNA in the absence of chemical substance: 1.4
Yeast gene YCR098C
  The level of expressed mRNA in the presence of chemical substance/The level of expressed mRNA in the absence of chemical substance: 1.7
Yeast gene YDL128W
  The level of expressed mRNA in the presence of chemical substance/The level of expressed mRNA in the absence of chemical substance: 0.9
Yeast gene YDL198C
  The level of expressed mRNA in the presence of chemical substance/The level of expressed mRNA in the absence of chemical substance: 1.5
Yeast gene YDL210W
  The level of expressed mRNA in the presence of chemical substance/The level of expressed mRNA in the absence of chemical substance: 1.1
Yeast gene YDL245C
  The level of expressed mRNA in the presence of chemical substance/The level of expressed mRNA in the absence of chemical substance: 1.0
Yeast gene YDR038C
  The level of expressed mRNA in the presence of chemical substance/The level of expressed mRNA in the absence of chemical substance: 1.3
Yeast gene YDR039C
  The level of expressed mRNA in the presence of chemical substance/The level of expressed mRNA in the absence of chemical substance: 1.1
Yeast gene YDR086C
  The level of expressed mRNA in the presence of chemical substance/The level of expressed mRNA in the absence of chemical substance: 1.4
Yeast gene YDR270W
  The level of expressed mRNA in the presence of chemical substance/The level of expressed mRNA in the absence of chemical substance: 0.9
Yeast gene YDR298C
  The level of expressed mRNA in the presence of chemical substance/The level of expressed mRNA in the absence of chemical substance: 1.1
Yeast gene YDR342C
  The level of expressed mRNA in the presence of chemical substance/The level of expressed mRNA in the absence of chemical substance: 1.0
Yeast gene YDR343C
  The level of expressed mRNA in the presence of chemical substance/The level of expressed mRNA in the absence of chemical substance: 1.1
Yeast gene YDR345C
  The level of expressed mRNA in the presence of chemical substance/The level of expressed mRNA in the absence of chemical substance: 1.3
Yeast gene YDR387C
  The level of expressed mRNA in the presence of chemical substance/The level of expressed mRNA in the absence of chemical substance: 1.2
Yeast gene YDR497C
  The level of expressed mRNA in the presence of chemical substance/The level of expressed mRNA in the absence of chemical substance: 1.6
Yeast gene YEL027W
  The level of expressed mRNA in the presence of chemical substance/The level of expressed mRNA in the absence of chemical substance: 1.0
Yeast gene YEL063C
  The level of expressed mRNA in the presence of chemical substance/The level of expressed mRNA in the absence of chemical substance: 0.7
Yeast gene YEL065W
  The level of expressed mRNA in the presence of chemical substance/The level of expressed mRNA in the absence of chemical substance: 0.7
Yeast gene YER053C
  The level of expressed mRNA in the presence of chemical substance/The level of expressed mRNA in the absence of chemical substance: 1.2
Yeast gene YFL011W
  The level of expressed mRNA in the presence of chemical substance/The level of expressed mRNA in the absence of chemical substance: 0.8
Yeast gene YFL041W
  The level of expressed mRNA in the presence of chemical substance/The level of expressed mRNA in the absence of chemical substance: 1.1
Yeast gene YFL050C
  The level of expressed mRNA in the presence of chemical substance/The level of expressed mRNA in the absence of chemical substance: 0.8
Yeast gene YFL054C
  The level of expressed mRNA in the presence of chemical substance/The level of expressed mRNA in the absence of chemical substance: 1.7
Yeast gene YGL006W
  The level of expressed mRNA in the presence of chemical substance/The level of expressed mRNA in the absence of chemical substance: 2.4
Yeast gene YGL008C
  The level of expressed mRNA in the presence of chemical substance/The level of expressed mRNA in the absence of chemical substance: 1.1
Yeast gene YGL104C
  The level of expressed mRNA in the presence of chemical substance/The level of expressed mRNA in the absence of chemical substance: 1.3
Yeast gene YGL167C
  The level of expressed mRNA in the presence of chemical substance/The level of expressed mRNA in the absence of chemical substance: 1.4
Yeast gene YGL255W
  The level of expressed mRNA in the presence of chemical substance/The level of expressed mRNA in the absence of chemical substance: 0.6
Yeast gene YGR055W
  The level of expressed mRNA in the presence of chemical substance/The level of expressed mRNA in the absence of chemical substance: 0.7
Yeast gene YGR065C
  The level of expressed mRNA in the presence of chemical substance/The level of expressed mRNA in the absence of chemical substance: 0.7
Yeast gene YGR082W
  The level of expressed mRNA in the presence of chemical substance/The level of expressed mRNA in the absence of chemical substance: 0.9
Yeast gene YGR096W
  The level of expressed mRNA in the presence of chemical substance/The level of expressed mRNA in the absence of chemical substance: 0.8
Yeast gene YGR138C
  The level of expressed mRNA in the presence of chemical substance/The level of expressed mRNA in the absence of chemical substance: 0.7
Yeast gene YGR191W
  The level of expressed mRNA in the presence of chemical substance/The level of expressed mRNA in the absence of chemical substance: 0.8
Yeast gene YGR197C
  The level of expressed mRNA in the presence of chemical substance/The level of expressed mRNA in the absence of chemical substance: 1.7
